Reference: patent US12528815B2, “5-amino-8-(4-pyridyl)-[1,2,4]triazolo[4,3-c]pyrimidin-3-one compounds for use against cancer” (Nxera Pharma UK Limited, priority 2020, dated 2026)

Key:
[1] = molecular target: T1, human adenosine A1 receptor (Homo sapiens, UniProt P30542); assay: Inhibition binding assay, human adenosine A1 receptor membranes, [3H]DPCPX; conditions: 1 nM [3H]DPCPX, 25° C., 1 h; IC50 converted to Ki with Cheng-Prusoff; read-out: A1 pKi (converted)
T1 construct: expressed in transfected cells; host or cells: HEK293 cells infected with BacMam (the same paragraph also labels the preparation CHO-hA1)
T1 sequence (P30542 1-326): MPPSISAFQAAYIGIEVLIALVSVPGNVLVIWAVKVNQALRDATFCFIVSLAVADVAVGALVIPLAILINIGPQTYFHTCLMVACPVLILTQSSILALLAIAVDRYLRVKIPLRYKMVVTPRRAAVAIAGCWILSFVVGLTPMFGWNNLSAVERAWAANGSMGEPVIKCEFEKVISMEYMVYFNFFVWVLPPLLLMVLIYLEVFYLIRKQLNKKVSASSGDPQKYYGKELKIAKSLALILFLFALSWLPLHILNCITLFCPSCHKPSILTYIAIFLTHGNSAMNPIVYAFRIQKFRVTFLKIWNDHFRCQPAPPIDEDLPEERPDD
Method in brief: (§1)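 Membranes from BacMam-infected HEK293 cells (0.2 μg A2A, 1.4 μg A1) incubated 1 h at 25° C with test compound and 1 nM [3H]ZM241385 (A2A; 50 mM Tris-HCl pH 7.4) or [3H]DPCPX (A1; plus 100 mM NaCl, 10 mM MgCl2). Nonspecific: 1 μM CGS15943 or DPCPX. Filtration, scintillation; IC50 converted to Ki via Cheng-Prusoff.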

[2] = molecular target: T2, human adenosine A2A receptor (Homo sapiens, UniProt P29274); assay: Inhibition binding assay, human adenosine A2A receptor membranes, [3H]ZM241385; conditions: 1 nM [3H]ZM241385, HEK293-hA2A membranes, 25° C., 1 h; IC50 converted to Ki with Cheng-Prusoff; read-out: A2A pKi (converted)
T2 construct: expressed in transfected cells; host or cells: HEK293 cells infected with BacMam
T2 sequence (P29274 whole entry): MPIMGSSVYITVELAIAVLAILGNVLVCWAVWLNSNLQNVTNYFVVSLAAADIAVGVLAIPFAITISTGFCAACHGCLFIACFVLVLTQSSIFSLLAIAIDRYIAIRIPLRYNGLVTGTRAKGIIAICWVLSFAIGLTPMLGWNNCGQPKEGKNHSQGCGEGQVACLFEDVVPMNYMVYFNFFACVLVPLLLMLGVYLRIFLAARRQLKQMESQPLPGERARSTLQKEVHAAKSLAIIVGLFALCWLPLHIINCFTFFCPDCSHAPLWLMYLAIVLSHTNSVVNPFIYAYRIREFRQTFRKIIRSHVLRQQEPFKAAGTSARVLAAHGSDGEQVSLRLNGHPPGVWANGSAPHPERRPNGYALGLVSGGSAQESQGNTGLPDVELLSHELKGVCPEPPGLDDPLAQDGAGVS
Method in brief: as §1

SMILES | Ki [1] | Ki [2]
Cc1cc(-c2c(-c3ccccc3)nc(N)n3c(=O)n(CCN4CCCCCC4c4cccn4C)nc23)cc(C)n1 (stereo not shown) [Example 1-96, 5-amino-8-(2,6-dimethyl-4-pyridyl)-2-[2-[2-(1-methylpyrrol-2-yl)azepan-1-yl]ethyl]-7-phenyl-[1,2,4]triazolo[4,3-c]pyrimidin-3-one] | 251 nM | 3.98 nM
Cc1cc(-c2c(-c3ccccc3)nc(N)n3c(=O)n(Cc4c(F)cccc4F)nc23)cc(C)n1 [Example 1-23, 5-amino-2-[(2,6-difluorophenyl)methyl]-8-(2,6-dimethyl-4-pyridyl)-7-phenyl-[1,2,4]triazolo[4,3-c]pyrimidin-3-one] | 3.16 nM | 0.1 nM
Nc1nc(-c2ccccc2)c(-c2cc(Cl)nc(CO)c2)c2nn(CCC(F)(F)F)c(=O)n12 [Example 2-45, 5-amino-8-[2-chloro-6-(hydroxymethyl)-4-pyridyl]-7-phenyl-2-(3,3,3-trifluoropropyl)-[1,2,4]triazolo[4,3-c]pyrimidin-3-one] | 316 nM | 0.251 nM
Cc1cc(-c2c(-c3ccc(F)cc3)nc(N)n3c(=O)n(CCC(F)(F)F)nc23)cc(Cl)n1 [Example 2-50, 5-amino-8-(2-chloro-6-methyl-4-pyridyl)-7-(4-fluorophenyl)-2-(3,3,3-trifluoropropyl)-[1,2,4]triazolo[4,3-c]pyrimidin-3-one] | 79.4 nM | 0.794 nM
COC(=O)CCn1nc2c(-c3cc(C)nc(C)c3)c(-c3ccccc3)nc(N)n2c1=O [Example 2-15, methyl 3-[5-amino-8-(2,6-dimethyl-4-pyridyl)-3-oxo-7-phenyl-[1,2,4]triazolo[4,3-c]pyrimidin-2-yl]propanoate] | 501 nM | 5.01 nM
Cc1cc(-c2c(-c3ccccc3)nc(N)n3c(=O)n(Cc4ccc(Cl)cn4)nc23)cc(CO)n1 [Example 1-55, 5-amino-2-[(5-chloro-2-pyridyl)methyl]-8-[2-(hydroxymethyl)-6-methyl-4-pyridyl]-7-phenyl-[1,2,4]triazolo[4,3-c]pyrimidin-3-one] | 501 nM | 1.58 nM
Cc1cc(-c2c(-c3ccccc3)nc(N)n3c(=O)n(CC(C)C)nc23)cc(C)n1 [Example 2-21, 5-amino-8-(2,6-dimethyl-4-pyridyl)-2-isobutyl-7-phenyl-[1,2,4]triazolo[4,3-c]pyrimidin-3-one] | 1000 nM | 2.51 nM

Other lines, results leading:

Ki [1] | Ki [2] | SMILES
251 nM | 2.51 nM | Cc1cc(-c2c(-c3ccccc3)nc(N)n3c(=O)n(CC4CCCOC4)nc23)cc(CO)n1 (single isomer, unassigned) [Example 2-92-iso-1, 5-amino-8-[2-(hydroxymethyl)-6-methyl-4-pyridyl]-7-phenyl-2-(tetrahydropyran-3-ylmethyl)-[1,2,4]triazolo[4,3-c]pyrimidin-3-one]
> 3160 nM | 63.1 nM | Cc1cc(-c2c(-c3ccccc3)nc(N)n3c(=O)n(CCN(C)CC(=O)N4CCC(O)CC4)nc23)cc(C)n1 [Example 2-107, 5-amino-8-(2,6-dimethyl-4-pyridyl)-2-[2-[[2-(4-hydroxy-1-piperidyl)-2-oxo-ethyl]-methyl-amino]ethyl]-7-phenyl-[1,2,4]triazolo[4,3-c]pyrimidin-3-one]
200 nM | 3.16 nM | Cc1cc(-c2c(-c3ccccc3)nc(N)n3c(=O)n(CCCn4ccccc4=O)nc23)cc(C)n1 [Example 2-112, 5-amino-8-(2,6-dimethylpyridin-4-yl)-2-(3-(2-oxopyridin-1(2H)-yl)propyl)-7-phenyl-[1,2,4]triazolo[4,3-c]pyrimidin-3(2H)-one]
398 nM | 6.31 nM | Cc1cc(-c2c(-c3ccccc3)nc(N)n3c(=O)n(C[C@@H]4CN(C(=O)OC(C)(C)C)CCO4)nc23)cc(C)n1 [Example 2-69, tert-butyl (2S)-2-[[5-amino-8-(2,6-dimethyl-4-pyridyl)-3-oxo-7-phenyl-[1,2,4]triazolo[4,3-c]pyrimidin-2-yl]methyl]morpholine-4-carboxylate]
